Results on three molecules are retold here after patent publication US20110171193A1, “COMPOSITIONS AND METHODS FOR TREATING PULMONARY HYPERTENSION” (THE BOARD OF TRUSTEES OF THE UNIVERSITY OF ILLINOIS, priority 2008, published 2011).

Positions count from the first letter of the chain named. Entries after “also recorded” stand apart in the source; their conditions may differ.

One experiment concerns the target T1, purified PKG-1 (Bos taurus, UniProt P00516).
T1 construct: purchased Promega
T1 sequence (P00516 1-671): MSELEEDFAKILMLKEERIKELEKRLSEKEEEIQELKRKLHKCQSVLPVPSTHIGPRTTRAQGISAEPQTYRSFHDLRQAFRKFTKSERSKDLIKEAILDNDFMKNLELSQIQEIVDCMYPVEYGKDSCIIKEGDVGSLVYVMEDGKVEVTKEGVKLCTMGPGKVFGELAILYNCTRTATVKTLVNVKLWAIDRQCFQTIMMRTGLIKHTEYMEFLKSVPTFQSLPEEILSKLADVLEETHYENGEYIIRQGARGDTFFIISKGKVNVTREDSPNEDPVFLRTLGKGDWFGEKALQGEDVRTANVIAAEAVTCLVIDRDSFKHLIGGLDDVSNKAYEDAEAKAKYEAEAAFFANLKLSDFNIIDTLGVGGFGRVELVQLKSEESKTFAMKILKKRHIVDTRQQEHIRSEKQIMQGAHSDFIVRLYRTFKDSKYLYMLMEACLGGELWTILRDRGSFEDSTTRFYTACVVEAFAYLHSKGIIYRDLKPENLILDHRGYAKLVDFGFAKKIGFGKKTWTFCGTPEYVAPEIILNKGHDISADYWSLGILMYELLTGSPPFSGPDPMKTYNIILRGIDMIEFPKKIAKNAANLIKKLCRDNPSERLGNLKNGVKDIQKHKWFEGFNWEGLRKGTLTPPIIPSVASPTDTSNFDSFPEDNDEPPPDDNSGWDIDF
Nature of the experiment: In vitro kinase assay of purified PKG-1 after peroxynitrite or DETA NONOate. Format: biochemical. Conditions: even at 100 μM, 30 min in dark at RT. On the procedure:
(§1) PKG Kinase Assay. In vitro activity of PKG was determined by measuring the transfer of the [g-^32P] phosphate group of ATP to the specific PKG substrate, BPDEtide (Calbiochem) in the absence or presence of exogenous 2.5 mM cGMP as described in Example 13. PKG activity is expressed as picmoles of ^32P incorporated into PKG substrate per min per microgram protein.
To address the role of peroxynitrite in the mechanism of the observed impairment of PKG activity, we treated human pulmonary artery smooth muscle cells with 3-morpholinosydnonimine (SIN-1), the superoxide and NO donor that forms peroxynitrite simultaneously (30). […] FIG. 9A relates to dose-dependent impairment of PKG activity by peroxynitrite. Purified […] (Promega) was incubated with peroxynitrite at indicated concentrations for 14 min at RT or with DETA NONOate (NONOate) for 30 min in dark at RT. Kinase activity was then assayed. Data is expressed mean+/−SD (n=3). *, P<0.05 versus control (0 μM). FIG. 9B relates to screening of PKG-1a mutants with in vitro kinase assay. At 48 hr post-transfection, myc-tagged WT and PKG-1a mutants were immunoprecipitated with anti-myc beads and aliquoted for incubation with either peroxynitrite (100 μM) or the same amount of 0.1 N NaOH only (CTL). […] PKG activity was expressed as pmoles/min/μg cell lysates. […] Data are expressed as mean±SD (n=3), *, P<0.05 versus either PKG-1a mutant. […]

For another experiment, the system named is Cav1−/− mice. As to the kind of experiment: RVSP in Cav1−/− mice with PH. Format: in vivo, mouse. The conditions noted are these: 8 month old Cav1−/− mice; 5 mg/kg, i.p. daily for 6 wk. The protocol: RVSP was determined as follows. Briefly, following anesthesia, mice were prepared for catheterization. A 1.4 F pressure transducer catheter (Millar Instruments) was carefully inserted via the right external jugular vein into the right ventricle to obtain measurements of RVSP using the Acknowledge software (Biopac Systems, Inc.). To determine lung vascular resistance, mice were anesthetized and prepared for perfusion. Pulmonary arterial (Ppa) and venous (Pv) pressures were monitored continuously through the pulmonary arterial and left atrial cannula, which were connected to a pressure transducer. […] Ppa was measured at steady-state and was plotted against the flow, which was measured by weighing the effluent collected over a one-minute period. […]
To determine whether pharmacological inhibition of eNOS in Cav1^−/− mice can reverse PH, we administered N-Nitro-L-Arginine Methyl Ester (L-NAME), a NOS inhibitor, to Cav1^−/− mice following onset of PH. […] Data are expressed as mean±SD (n=5-7). *, P=0.023 WT versus Cav1^−/−;**, P=0.015 Cav-L versus Cav1^−/−; #, P>0.5 Cav-D versus Cav1^−/−. […] Data are expressed as mean±SD (n=5-7). *, P=0.002 WT versus Cav1^−/−; **, P=0.013 Cav-L versus Cav1^−/−; #, P=0.8 Cav-D versus Cav1^−/−.
Hemodynamic Measurements. RVSP was determined with a 1.4 F pressure transducer catheter (Millar Instruments) and the Acknowledge software (Biopac Systems, Inc.). […]

A further experiment concerns the target T2, PKG-I (Homo sapiens, UniProt Q13976).
T2 construct: primary cultures of human pulmonary artery smooth muscle cells were immunoprecipitated overnight with anti-PKG-I; endogenous in cells; host or cells: primary human pulmonary artery smooth muscle cells
T2 sequence (Q13976 1-671): T1 sequence (P00516 1-671) with K265T, N275S
Nature of the experiment: PKG-I tyrosine nitration in human pulmonary artery smooth muscle cells after SIN-1 (IP / anti-nitrotyrosine Western blot). The class given is cell-based. The protocol: Western blot analyses were performed using anti-Cav1 (1:1000, Santa Cruz Biotechnology), anti-eNOS (1:1000, Upstate Biotechnology), and anti-PKG-I (1 mg/ml, a generous gift from Dr. X-P. Du at Department of Pharmacology, University of Illinois at Chicago). The same blots were reprobed with either anti-a-actin (1:400, Santa Cruz Biotechnology) or anti-GAPDH (1:2000, Santa Cruz Biotechnology) as a loading control. To detect PKG-I tyrosine nitration, protein lysates from either mouse lungs or primary cultures of human pulmonary artery smooth muscle cells were immunoprecipitated overnight with anti-PKG-I and then probed with anti-nitrotyrosine (1:2500, Cayman Chemical).
(§2) To test the hypothesis that peroxynitrite modifies PKG through tyrosine nitration thereby impairing kinase activity, we treated subconfluent human pulmonary artery smooth muscle cells with 3-morpholinosydnonimine (SIN-1), a donor of superoxide and NO, which spontaneously forms peroxynitrite at the two concentrations used. […] Each cell lysate (50 mg) was used for immunoprecipitation with an anti-PKG-I antibody and tyrosine nitration of PKG-I was detected by Western blot with anti-nitrotyrosine antibody (NT). Each lysate (15 mg) was used for direct immunoblotting with anti-PKG-I and anti-GAPDH, respectively. CTL, control. […] Data are shown as mean±SD (n=3). *, P<0.001 versus CTL; **, P<0.001 versus CTL.
Molecular Analysis. […]
A general note: A western blot detects proteins with antibodies after separation by electrophoresis.

The target in a further experiment is T3, PKG (Homo sapiens, UniProt Q13976).
T3 construct: endogenous in cells; host or cells: primary human pulmonary artery smooth muscle cells
T3 sequence (Q13976 1-671): T1 sequence (P00516 1-671) with K265T, N275S
Nature of the experiment: PKG kinase activity in human pulmonary artery smooth muscle cells after SIN-1. The class given is cell-based. On the procedure: In vitro activity of PKG was determined by measuring the transfer of the [g-32P] phosphate group of ATP to the specific PKG substrate, BPDEtide (Calbiochem) in the absence or presence of exogenous 2.5 mM cGMP. The assay was carried out in a total volume of […] containing 150 mM BPDEtide, 10 mM HEPES, 35 mM b-glycerophosphate, 4 mM magnesium acetate, 5 mM PKI (a synthetic protein kinase A inhibitor, Calbiochem), 0.5 mM EDTA, 200 mM ATP, and 2 mCi of [g-32P]ATP (specific activity 3,000 Ci/mmol, GE Amersham). The mixture was incubated at […] for 12 min and terminated by spotting […] aliquots of mixture on phosphocellulose papers (P81, Whatman). The papers were then washed and counted in a liquid scintillation counter. PKG activity is expressed as picmoles of 32P incorporated into PKG substrate per minute per milligram protein.
as §2, §1

`NCCN(CCN)/[N+]([O-])=N/O` [DETA NONOate]: the PKG activity entry on purified PKG-1 is recorded as “failed to suppress PKG activity”.
For “manganese (III) tetrakis (1-methyl-4-pyridyl) porphyrin pentachloride [MnTMPyP]”, the RVSP entry in the experiment on Cav1−/− mice was “reduced RVSP”.
For the molecule `N=c1c[n+](N2CCOCC2)[n-]o1` [SIN-1, 3-morpholinosydnonimine], the PKG tyrosine nitration entry at PKG-I (SIN-1 at 0.1 mM) was “only minimal PKG tyrosine nitration”; on PKG-I (SIN-1 concentration, 30 min), “significant PKG tyrosine nitration; also recorded: marked PKG tyrosine nitration; also recorded: PKG1 tyrosine nitration”. For the same molecule, the “PKG kinase activity after addition of cGMP” value at PKG (SIN-1 30 min, after addition of 2.5 mM of cGMP) is reported as “significant decrease of PKG activity; also recorded: significantly decreased PKG kinase activity; also recorded: impaired kinase activity”. For the same molecule, the “PKG kinase activity, basal” value at PKG (SIN-1 30 min, basal state) was “significant decrease of PKG activity; also recorded: significantly decreased PKG kinase activity; also recorded: impaired kinase activity”. At PKG (SIN-1 at 0.1 mM), the PKG kinase activity entry is recorded as “did not decrease PKG kinase activity”.
